Assay [1] addresses T1, TRAF2 and NCK-interacting protein kinase (Homo sapiens, UniProt Q9UKE5). The assay can be described thus: Inhibition of TNIK (unknown origin).
Target sequence in this assay (Q9UKE5 whole entry): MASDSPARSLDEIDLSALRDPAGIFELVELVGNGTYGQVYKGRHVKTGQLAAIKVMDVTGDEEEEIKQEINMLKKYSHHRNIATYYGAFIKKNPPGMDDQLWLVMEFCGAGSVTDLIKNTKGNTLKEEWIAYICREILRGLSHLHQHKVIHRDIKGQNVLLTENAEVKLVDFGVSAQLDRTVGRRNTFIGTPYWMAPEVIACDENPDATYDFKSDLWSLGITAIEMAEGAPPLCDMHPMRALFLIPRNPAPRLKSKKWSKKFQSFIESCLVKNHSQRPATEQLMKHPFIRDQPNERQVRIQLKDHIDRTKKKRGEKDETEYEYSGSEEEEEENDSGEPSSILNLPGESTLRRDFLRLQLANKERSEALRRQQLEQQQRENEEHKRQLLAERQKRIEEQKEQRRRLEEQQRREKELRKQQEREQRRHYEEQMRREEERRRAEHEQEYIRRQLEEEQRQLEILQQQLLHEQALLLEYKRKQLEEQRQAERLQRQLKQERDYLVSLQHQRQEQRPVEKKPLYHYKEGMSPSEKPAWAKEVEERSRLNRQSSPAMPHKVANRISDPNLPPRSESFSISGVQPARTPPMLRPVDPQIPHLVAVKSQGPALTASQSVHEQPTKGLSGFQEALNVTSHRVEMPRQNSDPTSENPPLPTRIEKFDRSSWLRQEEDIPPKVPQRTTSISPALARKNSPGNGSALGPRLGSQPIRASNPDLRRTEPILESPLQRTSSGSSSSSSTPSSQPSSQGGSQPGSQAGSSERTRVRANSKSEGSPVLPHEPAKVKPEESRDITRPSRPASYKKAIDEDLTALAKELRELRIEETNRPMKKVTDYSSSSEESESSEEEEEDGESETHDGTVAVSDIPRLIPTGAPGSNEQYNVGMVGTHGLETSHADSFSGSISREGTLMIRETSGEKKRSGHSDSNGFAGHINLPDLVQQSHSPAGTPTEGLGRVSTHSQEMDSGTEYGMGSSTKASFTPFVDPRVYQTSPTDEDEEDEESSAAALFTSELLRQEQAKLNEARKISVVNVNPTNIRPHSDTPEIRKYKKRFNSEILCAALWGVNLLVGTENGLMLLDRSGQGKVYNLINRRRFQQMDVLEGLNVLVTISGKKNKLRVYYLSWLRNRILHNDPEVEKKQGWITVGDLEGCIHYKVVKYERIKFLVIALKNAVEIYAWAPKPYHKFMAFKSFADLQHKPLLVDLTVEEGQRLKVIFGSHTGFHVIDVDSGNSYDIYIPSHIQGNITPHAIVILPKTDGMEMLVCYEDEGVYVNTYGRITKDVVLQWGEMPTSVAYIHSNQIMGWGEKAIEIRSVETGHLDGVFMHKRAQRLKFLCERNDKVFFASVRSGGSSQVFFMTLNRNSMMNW
For assay [2], the target named is T1, TRAF2 and NCK-interacting protein kinase. Kind of assay: Inhibition of TNIK in human Jurkat cells assessed as reduction in PMA/anti-CD3 antibody-induced IL2 level incubated for 24 hrs by ELISA. It is filed as cell-based. The conditions noted are these: dose 1-10 µM. In general terms: ELISA stands for enzyme-linked immunosorbent assay.
Target sequence in this assay (Q9UKE5 whole entry, looked up): as the sequence (Q9UKE5 whole entry) above
Assay [3] shares this target. The assay can be described thus: Inhibition of TNIK in PMA/anti-CD3 antibody-stimulated human Jurkat cells assessed as IL2 level at 10 uM incubated for 24 hrs by ELISA. Type of assay: cell-based.
Target sequence in this assay (Q9UKE5 whole entry, looked up): as the sequence (Q9UKE5 whole entry) above
Assay [4] has the same target. Kind of assay: Inhibition of TNIK in human Jurkat cells assessed as reduction in PMA/anti-CD3 antibody-induced IL2 secretion at 1 uM incubated for 24 hrs by ELISA. Type of assay: cell-based.
Target sequence in this assay (Q9UKE5 whole entry, looked up): as the sequence (Q9UKE5 whole entry) above

Structures are written as SMILES. The source made the active and inactive calls. The calls are words filed in the database; no cut-off is given here.

What is called IC50 is the concentration that gives 50% inhibition. Low readings indicate greater potency, high ones weaker potency. `CN1CCN(Cc2ccc(-c3cnc4[nH]cc(-c5ccc(Cl)cc5)c4c3)cc2)CC1`: in assay [1], the IC50 was found to be 14 nM. For `CN1CCN(Cc2ccc(-c3cnc4[nH]cc(-c5cc(C#N)c(Cl)c(NS(C)(=O)=O)c5)c4c3)cc2)CC1`, half-maximal inhibition in assay [1] (IC50) was put at 0.43 nM. The inhibition result in assay [2] was “Dose-dependent effect”. In turn, `CN1CCN(Cc2ccc(-c3cnc4[nH]cc(-c5cnc6[nH]ncc6c5)c4c3)cc2)CC1` returned an IC50 in assay [1] of 7.9 nM.

Turning to `Cn1cc(-c2ccc(-c3cnc4[nH]cc(-c5cc(C#N)cc(NS(C)(=O)=O)c5)c4c3)cc2)cn1`, in assay [1], the IC50 came to 0.8 nM. `CN1CCN(Cc2ccc(-c3cnc4[nH]cc(-c5ccc(F)cc5)c4c3)cc2)CC1`: the IC50 in assay [1] came out at 19 nM.

Compound `CNC(=O)c1cccc(-c2c[nH]c3ncc(-c4ccc(CN5CCN(C)CC5)cc4)cc23)c1` returned an IC50 in assay [1] of 27 nM. For the compound `CNC(=O)c1cccc(-c2cnc3[nH]cc(-c4cc(C#N)c(Cl)c(NS(C)(=O)=O)c4)c3c2)c1`, the IC50 in assay [1] came out at 0.3 nM. In assay [1], `CN1CCN(Cc2ccc(-c3cnc4[nH]cc(-c5ccc6[nH]ncc6c5)c4c3)cc2)CC1` showed an IC50 of 0.44 nM. Same read-out and setting: as for `CS(=O)(=O)Nc1cc(C#N)cc(-c2c[nH]c3ncc(-c4cccc(C(=O)N5CCCCC5)c4)cc23)c1`, the figure is 0.22 nM. On the same count and under the same terms, in the case of `CN1CCN(Cc2ccc(-c3cnc4[nH]cc(-c5cccc(C#N)c5)c4c3)cc2)CC1` it was 0.91 nM; in that of `CS(=O)(=O)Nc1cc(C#N)cc(-c2c[nH]c3ncc(-c4cccc(C(=O)N5CCCC5)c4)cc23)c1`, 0.21 nM. Compound `CN1CCN(Cc2ccc(-c3cnc4[nH]cc(-c5cccc(N)c5)c4c3)cc2)CC1` gave an IC50 in assay [1] of 15 nM. Regarding `c1ccc(-c2cnc3[nH]cc(-c4ccccc4)c3c2)cc1`, the IC50 in assay [1] is 9.2 nM. With `CNC(=O)c1cccc(-c2cnc3[nH]cc(-c4cc(C#N)cc(NS(C)(=O)=O)c4)c3c2)c1`, half-maximal inhibition in assay [1] (IC50) required 0.18 nM. Still for that read-out and setting: in the case of `CN(C)C1CCN(C(=O)c2cccc(-c3cnc4[nH]cc(-c5cc(C#N)cc(NS(C)(=O)=O)c5)c4c3)c2)C1` (stereo not drawn) it was 0.22 nM. The compound `CN1CCN(C(=O)c2ccc(-c3cnc4[nH]cc(-c5cc(C#N)cc(NS(C)(=O)=O)c5)c4c3)cc2)CC1` had an IC50 in assay [1] of 0.21 nM. Still for that read-out and setting: as for `CN1CCN(Cc2ccc(-c3cnc4[nH]cc(-c5cccc6ccccc56)c4c3)cc2)CC1`, the figure is 31 nM. Same read-out and setting: as for `CN1CCN(Cc2ccc(-c3cnc4[nH]cc(-c5ccccc5)c4c3)cc2)CC1`, the figure is 14 nM. For the compound `CN1CCC(n2cc(-c3cnc4[nH]cc(-c5cc(C#N)c(Cl)c(NS(C)(=O)=O)c5)c4c3)cn2)CC1`, in assay [1], half-maximal inhibition (IC50) required 0.68 nM. Besides, the Activity in assay [3] is under 25 pg/mL. Also, the inhibition result in assay [2] was “Dose-dependent effect”. `CN1CCN(Cc2ccc(-c3cnc4[nH]cc(-c5ccc(NS(C)(=O)=O)cc5)c4c3)cc2)CC1` returned an IC50 in assay [1] of 18 nM. `CN1CCN(Cc2ccc(-c3cnc4[nH]cc(-c5cccc(C(=O)N(C)C)c5)c4c3)cc2)CC1` returned an IC50 in assay [1] of 43 nM.

As for `CN1CCN(Cc2ccc(-c3cnc4[nH]cc(-c5ccc6[nH]ccc6c5)c4c3)cc2)CC1`, the midpoint of inhibition in assay [1], the IC50, lay at 5.2 nM.

As to `CN1CCN(Cc2ccc(-c3cnc4[nH]cc(-c5cc(C#N)c6[nH]ncc6c5)c4c3)cc2)CC1`, the IC50 in assay [1] was found to be 0.23 nM. Further, the Activity in assay [3] was under 25 pg/mL. For the same compound, in assay [4], the inhibition result was “inactive”. Regarding `CC(=O)Nc1cccc(-c2c[nH]c3ncc(-c4ccc(CN5CCN(C)CC5)cc4)cc23)c1`, the IC50 in assay [1] worked out at 12 nM. The same measure, in the same setting: as for `CN1CCN(Cc2ccc(-c3cnc4[nH]cc(-c5cccc(NS(C)(=O)=O)c5)c4c3)cc2)CC1`, the figure is 7.1 nM. For `CN1CCN(Cc2ccc(-c3cnc4[nH]cc(-c5cc(C#N)cc(NS(=O)(=O)C6CC6)c5)c4c3)cc2)CC1`, in assay [1], the IC50 came out at 0.19 nM. Besides, in assay [3], the Activity was under 25 pg/mL. Also, the inhibition result in assay [2] is “Dose-dependent effect”. `CC(C)(C(=O)O)c1ccc(-c2cnc3[nH]cc(-c4cc(C#N)cc(NS(C)(=O)=O)c4)c3c2)cc1`: in assay [1], the IC50 worked out at 0.47 nM. Also, the inhibition entry in assay [2] is “Dose-dependent effect”. Turning to `CN1CCN(C(=O)c2cccc(-c3cnc4[nH]cc(-c5cc(C#N)cc(NS(C)(=O)=O)c5)c4c3)c2)CC1`, the IC50 in assay [1] was 0.25 nM. As to `CC(C)(Oc1ccc(-c2cnc3[nH]cc(-c4cc(C#N)cc(NS(C)(=O)=O)c4)c3c2)cc1)C(=O)O`, in assay [1], half-maximal inhibition (IC50) required 0.33 nM. In assay [2], the inhibition entry is “Dose-dependent effect”. Take `CS(=O)(=O)Nc1cc(C#N)cc(-c2c[nH]c3ncc(-c4cccc(C(=O)NC5CC5)c4)cc23)c1`: 0.12 nM corresponded to half-maximal inhibition in assay [1] (IC50).

`CN1CCN(Cc2ccc(-c3cnc4[nH]cc(-c5cc(C#N)cc(NS(C)(=O)=O)c5)c4c3)cc2)CC1` had an IC50 in assay [1] of 0.13 nM. For the same compound, in assay [3], the Activity is under 25 pg/mL. The inhibition entry in assay [2] was “Dose-dependent effect”.

In assay [1], `CN1CCN(Cc2ccc(-c3cnc4[nH]cc(-c5ccc6[nH]cnc6c5)c4c3)cc2)CC1` showed an IC50 of 3.8 nM.

The values are drawn from ChEMBL document CHEMBL4673375, “Discovery of a series of 1H-pyrrolo[2,3-b]pyridine compounds as potent TNIK inhibitors” (Bioorg Med Chem Lett, 2021).
